Like-named read-outs stand apart in the source and are kept apart here.

Series [1] relates to human colon carcinoma (HT-29) xenograft. The conditions noted are these: 4.0 mg/kg every 7 days for 5 doses. The text has this:
Healthy young male nude mice were subcutaneously injected with 5 million of HT-29 cells.

The nature of series [2]: Metabolism and clearance in normal mice (plasma and urine, LC MS/MS). The note with it: after Suc-βAla-Ile-Ala-Leu-Dox 117 mg/kg. The format is in vivo.
Series [3] concerns CD10 transfected CHO cells, Clone #3. In words: 3H thymidine proliferation assay, CD10 transfected CHO Clone #3. The format is cell-based, Chinese Hamster. The conditions noted are these: Cricetulus griseus, Table 25.
Procedure: (§3) The fully assembled coding region was sub-cloned into a mammalian expression vector, downstream of the hCMV-MIE promoter. DNA sequence analysis confirmed sequence identity with the coding sequence of human CD10 (Genbank accession number Y00811). The expression plasmid was linearized and stably transfected into CHO—S cells. CD10 expressing transfectant clones were selected under 500 ug/mL of hygromycin and screened by flow cytometry for cell-surface CD10 expression using a commercially available anti-CD10-FITC antibody.
In series [4] the test system is CD10 transfected CHO cells, Clone #5. In words: 3H thymidine proliferation assay, CD10 transfected CHO Clone #5. The conditions noted are these: Cricetulus griseus, read-out: IC50 Clone #5.
Procedure: as §3
In series [5] the test system is colorectal carcinoma LS174t xenograft. The conditions noted are these: tolerated dose 3 mg/kg, same dosing regimen; cited from earlier work.
For series [6], the system named is HL60 cells (CD10 negative). In words: Proliferation of HL60 cells with supernatant from compound-treated CHO cells. Type of series: cell-based. The conditions noted are these: Homo sapiens. The source says:
Confirmation of the data is shown when Suc-βAla-Leu-Ala-Leu-Dox was compared to Suc-Leu-Ala-Gly-Dox and the results are consistent with the fact that Suc-βAla-Leu-Ala-Leu is cleaved by CD10 transfected cells and not by the parental cell lines.

Series [7] relates to 22 RV1 (prostate carcinoma) cells. In words: 3H-thymidine incorporation, 22RV1 cells. Type of series: cell-based. The conditions noted are these: Homo sapiens, Table 6, 48 hours, read-out: IC50 22RV1 CD10−PSA+. As to the method:
Adherent cells, LNCaP (prostate carcinoma), PC-3 (prostate carcinoma) and 22 RV1 (prostate carcinoma), were cultured in DMEM media containing 10% heat inactivated fetal calf serum (FCS). On the day of the study the cells were detached from the plate with a trypsin solution. The collected cells were washed and resuspended at a concentration of 0.25×10^6 cells/ml in DMEM containing 10% FCS. 100 μl of cell suspension were added to 96 well plates and the plates were incubated for 3 hours to allow the cells to adhere. […] The plates were then incubated for 24 hours, pulsed with 1:0 μl of a 100 μCi/ml ^3H-thymidine and incubated for an additional 24 hours (total incubation time 48 hours). The plates were harvested using a 96 well Harvester (Packard Instruments) and counted on a Packard Top Count Counter. Four parameter logistic curves were fitted to the ^3H-thymidine incorporation as a function of drug molarity using Prism software to determine IC50 values.

Series [8] relates to LNCaP xenograft homogenate. In words: Hydrolysis by mouse tumor xenograft homogenates. The format is biochemical. The note with it: 12.5 μg/mL, up to 1 hr, 37° C. As to the method:
(§1) Soluble protein was measured and results are reported as protein specific activity. The results, illustrated in FIG. 13, indicate the LNCaP cells contain the highest Suc-Ile-Ala-Leu-Dox hydrolyzing activity while HL-60 cells show no Suc-Ile-Ala-Leu-Dox hydrolyzing activity.

Series [9] concerns HL-60 xenograft homogenate. Put plainly: Hydrolysis by mouse tumor xenograft homogenates. Type of series: biochemical. The note with it: 12.5 μg/mL, up to 1 hr, 37° C. As to the method:
as §1

For another series, the system named is LNCaP cell homogenate. Put plainly: Hydrolysis by cultured human cell homogenates. Type of series: biochemical. As to the method:
(§2) In addition, 1 μM phosphoramidon, a CD10 inhibitor was included in incubations with LNCaP cell homogenate. To estimate specific activity protein content was estimated in the soluble portion of the homogenates. Results expressed as protein specific activity (FIG. 12) indicate that LNCaP cells which are known to contain CD10 show the greatest Suc-Ile-Ala-Leu-Dox hydrolyzing activity.

The next series has as its system PC-3 cell homogenate. Put plainly: Hydrolysis by cultured human cell homogenates. The note with it: 12.5 μg/mL, up to 1 hr, 37° C., pH 7.2. Type of series: biochemical. As to the method: as §2
The subject of series [10] is CD10 transfected CHO cells (clone 8). In words: Conversion to Leu-Dox or Gly-Dox in cell supernatants, CD10 transfected CHO. The note with it: Clone 8 (CD10 transfected), 10 μM, 37° C. The format is cell-based, Chinese Hamster. As to the method:
To directly ask the question of whether the CD10 expressing cells were capable of cleaving the prodrug, supernatants from CD10 transfected or parental CHO cells treated with the compounds were collected. […] After incubation for 1, 4, and 24 hours, an aliquot of each supernatant was transferred to a 96-well plate and frozen at −20° C. Samples were subsequently thawed and analyzed by reversed phase HPLC (4.6×50 mm 21 TSK Super-ODS column) with fluorescence detection after dilution with 3 volumes of acetonitrile, removal of precipitate by centrifugation, and further dilution into 3 volumes of water. When incubated with Suc-βAla-Leu-Ala-Leu-Dox, there was no detectable metabolism to Leu-Dox observed with the parental cell line while clone 8 (CD10 transfected) generated significant levels of Leu-Dox from Suc-βAla-Leu-Ala-Leu-Dox (Table 27).

The conditions of series [11]: mouse, in vivo, iv, 100 umol/kg.
Procedure: Plasma was obtained from three individual animals in each group at 5 minutes, 1, 2, 4, or 6 hr.
Series [12] is described as follows: Second single dose Maximum Tolerated Dose (SD-MTD) study, 49 days. The note with it: mouse, in vivo, iv. As to the method: In a second single dose Maximum Tolerated Dose (SD-MTD) study, groups of five normal ICR mice were administered intravenous bolus doses of Suc-βAla-Leu-Ala-Leu-Dox. The mice were observed daily for 49 days and body weights measured twice weekly.
In a second single dose Maximum Tolerated Dose (SD-MTD) study, groups of five normal ICR mice were administered intravenous bolus doses of Suc-Leu-Ala-Leu-Dox. The mice were observed daily for 49 days and body weights measured twice weekly.
In a second single dose Maximum Tolerated Dose (SD-MTD) study, groups of five normal ICR mice were administered intravenously bolus doses of Suc-Ile-Ala-Leu-Dox. The mice were observed daily for 49 days and body weights measured twice weekly.
In a second single dose Maximum Tolerated Dose (SD-MTD) study, groups of five normal ICR mice were administered intravenous bolus doses of Suc-βAla-Ile-Ala-Leu-Dox. The mice were observed daily for 49 days and body weights measured twice weekly.

A word on the IC50: it is the concentration that gives 50% inhibition. As for `COc1cccc2c1C(=O)c1c(O)c3c(c(O)c1C2=O)C[C@@](O)(C(=O)CO)C[C@@H]3O[C@H]1C[C@H](N)[C@H](O)[C@H](C)O1` [Doxorubicin, reference compound], the “% TGI (Day 14, mean)” value in series [1] amounted to 9.3%. Also, in series [1], the “% TGI (Day 25, median)” value turned out to be 30.9%. The “Calculated Mean Day of Survival” value in series [1] was 30.0 ± 3.7 days; in series [1] (listed as doxorubicin), 30 days. For the same compound, the “Extension of Mean Day of Survival over controls” value in [1] came to 16.7%. Moreover, the “Mean Tumor Weight at Day 14” value in [1] came to 665 ± 103 mg. The “Median Tumor Weight at Day 25” value in [1] worked out at 1046 mg. In [1], the “Number of Long Term Survivors” value is reported as 0/10. Besides, the “Urine (% adm. dose) 2 hr” value in [2] (collected 0-2 hours) was 0.21 % adm. dose. Also, in series [2] (collected 2-24 hours), the “Urine (% adm. dose) 24 hr” value turned out to be 0.51 % adm. dose. In addition, the half-inhibitory concentration (IC50) came to 550 nM in series [3]; 810 nM in [4]; 164 nM in series [6] (HL-60, 24 h, HL60 fresh compound, 24 hours); 279 nM in series [6] (HL-60, 24 h, supernatant of Parental CHO, collected 24 hours after exposure); 488 nM in series [6] (HL-60, supernatant of Clone 8 (CD10 Pos.)); 417 nM in [6] (HL-60, supernatant of Clone 10 (CD10 Neg.)). Further, the IC50 in [6] (HL-60, supernatant of Clone DB4 (CD10 Pos.)) is 491 nM; in [7], 30 nM. The “efficacy in LS174t model” value in series [5] was “historically ineffective”.
Regarding `CC[C@H](C)[C@H](NC(=O)CCC(=O)O)C(=O)N[C@@H](C)C(=O)N[C@@H](CC(C)C)C(=O)N[C@H]1C[C@H](O[C@H]2C[C@](O)(C(=O)CO)Cc3c(O)c4c(c(O)c32)C(=O)c2c(OC)cccc2C4=O)O[C@@H](C)[C@H]1O` [Suc-Ile-Ala-Leu-Dox], the “hydrolyzing activity (protein specific activity)” value in series [8] is “highest”; in series [9] it was “no”; in the series with LNCaP cell homogenate (LNCaP cell homogenate with 1 μM phosphoramidon), “inhibited by phosphoramidon”; in the series with LNCaP cell homogenate (LNCaP cell homogenate, 12.5 μg/mL, up to 1 hr, 37° C., pH 7.2) it was “greatest”. In addition, the hydrolysis by homogenate result in the series with PC-3 cell homogenate is on record as “not”.
As a reminder, the MTD is the largest dose that counted as tolerated. Read a low MTD as poorer tolerability. `COc1cccc2c1C(=O)c1c(O)c3c(c(O)c1C2=O)C[C@@](O)(C(=O)CO)C[C@@H]3O[C@H]1C[C@H](NC(=O)[C@H](CC(C)C)NC(=O)[C@H](C)NC(=O)[C@H](CC(C)C)NC(=O)CCNC(=O)CCC(=O)O)[C@H](O)[C@H](C)O1` [Suc-βAla-Leu-Ala-Leu-Dox]: in series [10], the “Conversion rate to Leu-Dox or Gly-Dox” value was 0.30 mM/h and the “Percent Conversion/Hour to Leu-Dox or Gly-Dox” value amounted to 3.00 Percent Conversion/Hour. Also, in series [11], the “Plasma AUC0-6 hr of AL-Dox or AG-Dox*” value was 3.2 µM·h and the “Plasma AUC0-6 hr of L-Dox or G-Dox*” value stood at 40 µM·h. Further, the MTD in [12] is 50 mg/kg.

The values are drawn from patent publication US20050267016A1, “CD-10 activated prodrug compounds” (priority 2001, published 2005).
